Laboratory results from paper PMC8704611, “Synthesis, Molecular Docking Analysis, and Biological Evaluations of Saccharide-Modified Sulfonamides as Carbonic Anhydrase IX Inhibitors” (International Journal of Molecular Sciences, 2021).

Experiments:
hCA IX = hCA IX (Homo sapiens, UniProt Q16790); assay: CA inhibition assay (hydrolysis of 4-nitrophenylacetate); type: biochemical; conditions: 4-NPA hydrolysis; three independent assays, relative errors 5–10%
Description: (§1) Carbonic anhydrase has the ability to catalyse the hydrolysis of 4-NPA. […] More detailed operations and specific parameters are as reported earlier.

hCA II = hCA II (Homo sapiens, UniProt P00918); assay: as above; type: biochemical; conditions: 4-NPA hydrolysis; three independent assays, relative errors 5–10%
Description: as §1

Row | SMILES | melting point | IC50 (hCA IX) | IC50 (hCA II)
1 | Nc1ccc(-c2cn(-c3ccc(S(N)(=O)=O)cc3)nn2)cc1 [Compound 14a, 4-(4-(4-Aminophenyl)-1H-1,2,3-triazol-1-yl)benzenesulfonamide] | 256 to 258 °C | 54.4 nM | 19.3 nM
2 | Nc1cccc(-c2cn(-c3ccc(S(N)(=O)=O)cc3)nn2)c1 [Compound 14b, 4-(4-(3-Aminophenyl)-1H-1,2,3-triazol-1-yl)benzenesulfonamide] | 270 to 273 °C | 50.4 nM | 12.3 nM
3 | Nc1ccc(-c2cn(-c3ccc(S(N)(=O)=O)cc3)nn2)cc1F [Compound 14c, 4-(4-(4-Amino-3-fluorophenyl)-1H-1,2,3-triazol-1-yl)benzenesulfonamide] | 245 to 247 °C | 40.4 nM | 15.7 nM
4 | Nc1ccc(-c2cn(-c3ccc(S(N)(=O)=O)cc3)nn2)cc1Cl [Compound 14d, 4-(4-(4-Amino-3-chlorophenyl)-1H-1,2,3-triazol-1-yl)benzenesulfonamide] | 201 to 203 °C | 71 nM | 39.9 nM
5 | Cc1cc(-c2cn(-c3ccc(S(N)(=O)=O)cc3)nn2)ccc1N [Compound 14e, 4-(4-(4-Amino-3-methylphenyl)-1H-1,2,3-triazol-1-yl)benzenesulfonamide] | 264 to 266 °C | 111 nM | 37.9 nM
6 | COc1cc(-c2cn(-c3ccc(S(N)(=O)=O)cc3)nn2)ccc1N [Compound 14f, 4-(4-(4-Amino-3-methoxyphenyl)-1H-1,2,3-triazol-1-yl)benzenesulfonamide] | 230 to 233 °C | 120 nM | 100 nM
7 | Nc1c(F)cc(-c2cn(-c3ccc(S(N)(=O)=O)cc3)nn2)cc1F [Compound 14g, 4-(4-(4-Amino-3,5-difluorophenyl)-1H-1,2,3-triazol-1-yl)benzenesulfonamide] | 280 to 283 °C | 107 nM | 87 nM
8 | Nc1ccc(-c2cn(-c3ccc(S(N)(=O)=O)cc3)nn2)cc1[N+](=O)[O-] [Compound 14h, 4-(4-(4-Amino-3-nitrophenyl)-1H-1,2,3-triazol-1-yl)benzenesulfonamide] | 222 to 225 °C | 58.2 nM | 102 nM

Further lines, results first:

Row | melting point | IC50 (hCA IX) | IC50 (hCA II) | SMILES
9 | – | 150 nM | 70.2 nM | NS(=O)(=O)c1ccc(-n2cc(-c3ccc(NC(=O)CCC(=O)N[C@@H]4O[C@H](CO)[C@@H](O)[C@H](O)[C@H]4O)c(F)c3)nn2)cc1 [Compound 16c, N^1-(2-fluoro-4-(1-(4-sulfamoylphenyl)-1H-1,2,3-triazol-4-yl)phenyl)-N^4-((2R,3R,4S,5S,6R)-3,4,5-trihydroxy-6-(hydroxymethyl)tetrahydro-2H-pyran-2-yl)succinamide]
10 | – | 100 nM | 90.8 nM | NS(=O)(=O)c1ccc(-n2cc(-c3ccc(NC(=O)CCC(=O)N[C@@H]4O[C@H](CO)[C@@H](O)[C@H](O)[C@H]4O)c(Cl)c3)nn2)cc1 [Compound 16d, N^1-(2-chloro-4-(1-(4-sulfamoylphenyl)-1H-1,2,3-triazol-4-yl)phenyl)-N^4-((2R,3R,4S,5S,6R)-3,4,5-trihydroxy-6-(hydroxymethyl)tetrahydro-2H-pyran-2-yl)succinamide]
11 | – | 329 nM | 112 nM | COc1cc(-c2cn(-c3ccc(S(N)(=O)=O)cc3)nn2)ccc1NC(=O)CCC(=O)N[C@@H]1O[C@H](CO)[C@@H](O)[C@H](O)[C@H]1O [Compound 16f, N^1-(2-methoxy-4-(1-(4-sulfamoylphenyl)-1H-1,2,3-triazol-4-yl)phenyl)-N^4-((2R,3R,4S,5S,6R)-3,4,5-trihydroxy-6-(hydroxymethyl)tetrahydro-2H-pyran-2-yl)succinamide]
12 | – | 544 nM | 149 nM | NS(=O)(=O)c1ccc(-n2cc(-c3cc(F)c(NC(=O)CCC(=O)N[C@@H]4O[C@H](CO)[C@@H](O)[C@H](O)[C@H]4O)c(F)c3)nn2)cc1 [Compound 16g, N^1-(2,6-difluoro-4-(1-(4-sulfamoylphenyl)-1H-1,2,3-triazol-4-yl)phenyl)-N^4-((2R,3R,4S,5S,6R)-3,4,5-trihydroxy-6-(hydroxymethyl)tetrahydro-2H-pyran-2-yl)succinamide]
13 | – | 270 nM | 26 nM | NS(=O)(=O)c1ccc(-n2cc(-c3ccc(NC(=O)CCCC(=O)N[C@@H]4O[C@H](CO)[C@@H](O)[C@H](O)[C@H]4O)cc3)nn2)cc1 [Compound 16h, N^1-(4-(1-(4-sulfamoylphenyl)-1H-1,2,3-triazol-4-yl)phenyl)-N^5-((2R,3R,4S,5S,6R)-3,4,5-trihydroxy-6-(hydroxymethyl)tetrahydro-2H-pyran-2-yl)glutaramide]
14 | – | 300 nM | 10.1 nM | NS(=O)(=O)c1ccc(-n2cc(-c3cccc(NC(=O)CCCC(=O)N[C@@H]4O[C@H](CO)[C@@H](O)[C@H](O)[C@H]4O)c3)nn2)cc1 [Compound 16i, N^1-(3-(1-(4-sulfamoylphenyl)-1H-1,2,3-triazol-4-yl)phenyl)-N^5-((2R,3R,4S,5S,6R)-3,4,5-trihydroxy-6-(hydroxymethyl)tetrahydro-2H-pyran-2-yl)glutaramide]
15 | – | 230 nM | 88.4 nM | NS(=O)(=O)c1ccc(-n2cc(-c3ccc(NC(=O)CCCC(=O)N[C@@H]4O[C@H](CO)[C@@H](O)[C@H](O)[C@H]4O)c(F)c3)nn2)cc1 [Compound 16j, N^1-(2-fluoro-4-(1-(4-sulfamoylphenyl)-1H-1,2,3-triazol-4-yl)phenyl)-N^5-((2R,3R,4S,5S,6R)-3,4,5-trihydroxy-6-(hydroxymethyl)tetrahydro-2H-pyran-2-yl)glutaramide]
16 | – | 290 nM | 91 nM | NS(=O)(=O)c1ccc(-n2cc(-c3ccc(NC(=O)CCCC(=O)N[C@@H]4O[C@H](CO)[C@@H](O)[C@H](O)[C@H]4O)c(Cl)c3)nn2)cc1 [Compound 16k, N^1-(2-chloro-4-(1-(4-sulfamoylphenyl)-1H-1,2,3-triazol-4-yl)phenyl)-N^5-((2R,3R,4S,5S,6R)-3,4,5-trihydroxy-6-(hydroxymethyl)tetrahydro-2H-pyran-2-yl)glutaramide]
17 | – | 161 nM | 25.6 nM | Cc1cc(-c2cn(-c3ccc(S(N)(=O)=O)cc3)nn2)ccc1NC(=O)CCCC(=O)N[C@@H]1O[C@H](CO)[C@@H](O)[C@H](O)[C@H]1O [Compound 16l, N^1-(2-methyl-4-(1-(4-sulfamoylphenyl)-1H-1,2,3-triazol-4-yl)phenyl)-N^5-((2R,3R,4S,5S,6R)-3,4,5-trihydroxy-6-(hydroxymethyl)tetrahydro-2H-pyran-2-yl)glutaramide]
18 | – | 352 nM | 177 nM | NS(=O)(=O)c1ccc(-n2cc(-c3cc(F)c(NC(=O)CCCC(=O)N[C@@H]4O[C@H](CO)[C@@H](O)[C@H](O)[C@H]4O)c(F)c3)nn2)cc1 [Compound 16n, N^1-(2,6-difluoro-4-(1-(4-sulfamoylphenyl)-1H-1,2,3-triazol-4-yl)phenyl)-N^5-((2R,3R,4S,5S,6R)-3,4,5-trihydroxy-6-(hydroxymethyl)tetrahydro-2H-pyran-2-yl)glutaramide]
19 | – | 216 nM | 129 nM | NS(=O)(=O)c1ccc(-n2cc(-c3ccc(NC(=O)CCCC(=O)N[C@@H]4O[C@H](CO)[C@@H](O)[C@H](O)[C@H]4O)c([N+](=O)[O-])c3)nn2)cc1 [Compound 16o, N^1-(2-nitro-4-(1-(4-sulfamoylphenyl)-1H-1,2,3-triazol-4-yl)phenyl)-N^5-((2R,3R,4S,5S,6R)-3,4,5-trihydroxy-6-(hydroxymethyl)tetrahydro-2H-pyran-2-yl)glutaramide]
